Source: the supplement of paper PMC10307832

Columns and labels:
Test in all cases: relative viability (nuclei count vs DMSO), 5 days (fraction); higher = more cells survive
TPCA-1 + Olaparib = compound: C1=CC(=CC=C1C2=CC(=C(S2)NC(=O)N)C(=O)N)F [TPCA-1] + O=C(c1cc(Cc2n[nH]c(=O)c3ccccc23)ccc1F)N1CCN(C(=O)C2CC2)CC1 [Olaparib] (partner 8 µM)
Method in brief: (§1)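 Relative viability is defined as nuclei in treated wells over nuclei in vehicle wells. Duplicate plates were run and medians reported. Lung cancer cell lines in 1536-well plates were dosed by pin tool one day after seeding, with one drug or with a fixed anchor-drug dose plus five library-drug doses (not always all listed) in √10 steps, and nuclei were counted after 5 days.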

TPCA-1 + Trametinib = compound: C1=CC(=CC=C1C2=CC(=C(S2)NC(=O)N)C(=O)N)F [TPCA-1] + CC(=O)Nc1cccc(-n2c(=O)n(C3CC3)c(=O)c3c(Nc4ccc(I)cc4F)n(C)c(=O)c(C)c32)c1 [Trametinib] (partner 0.02 µM)
Method in brief: as §1

[1] = compound: C1/C(=C\C2=CC=CS2)/C(=O)/C(=C/C3=CC=CS3)/C1 + Cc1nc(NC(=O)N2CCC[C@H]2C(N)=O)sc1-c1ccnc(C(C)(C)C(F)(F)F)c1 [Alpelisib] (partner 2 µM)
Method in brief: as §1

Lestaurtinib + Lapatinib = compound: C[C@]12O[C@H](C[C@]1(O)CO)n1c3ccccc3c3c4c(c5c6ccccc6n2c5c31)CNC4=O [Lestaurtinib] + CS(=O)(=O)CCNCc1ccc(-c2ccc3ncnc(Nc4ccc(OCc5cccc(F)c5)c(Cl)c4)c3c2)o1 [Lapatinib] (partner 2 µM)
Method in brief: as §1

Cell Line	relative viability (TPCA-1 + Olaparib; first compound 0.04 µM)	relative viability (TPCA-1 + Olaparib; first compound 0.1265 µM)	relative viability (TPCA-1 + Olaparib; first compound 0.4 µM)	relative viability (TPCA-1 + Olaparib; first compound 1.265 µM)	relative viability (TPCA-1 + Olaparib; first compound 4 µM)	relative viability (TPCA-1 + Trametinib; first compound 0.04 µM)	relative viability (TPCA-1 + Trametinib; first compound 0.1265 µM)	relative viability (TPCA-1 + Trametinib; first compound 0.4 µM)	relative viability (TPCA-1 + Trametinib; first compound 1.265 µM)	relative viability (TPCA-1 + Trametinib; first compound 4 µM)	relative viability ([1]; first compound 0.2 µM)	relative viability ([1]; first compound 0.6325 µM)	relative viability ([1]; first compound 2 µM)	relative viability ([1]; first compound 6.325 µM)	relative viability ([1]; first compound 20 µM)	relative viability (Lestaurtinib + Lapatinib; first compound 0.005 µM)	relative viability (Lestaurtinib + Lapatinib; first compound 0.01581 µM)	relative viability (Lestaurtinib + Lapatinib; first compound 0.05 µM)	relative viability (Lestaurtinib + Lapatinib; first compound 0.1581 µM)	relative viability (Lestaurtinib + Lapatinib; first compound 0.5 µM)
NCI-H2228	0.731	0.624	0.789	0.56	0.432	0.443	0.517	0.671	0.346	0.155	0.787	0.692	0.745	0.619	0.869	0.892	0.95	0.376	0.281	0.256
NCI-H2347	0.565	0.54	0.607	0.578	0.545	0.26	0.316	0.276	0.266	0.252	1.1	1.07	0.963	0.952	1.15	0.938	0.968	0.871	0.65	0.613
NCI-H2405	0.908	0.833	0.951	0.717	0.691	0.662	0.606	0.722	0.469	0.638	0.945	0.766	0.79	0.797	0.87	1.06	1.14	1.02	0.927	0.428
NCI-H3122	0.627	0.605	0.594	0.588	0.439	0.228	0.177	0.228	0.243	0.215	0.887	0.785	0.876	0.488	0.891	1.07	1.05	1.02	0.98	0.414
PC-3 [JPC-3]	1.19	1.17	1.11	1.05	1	0.755	0.692	0.73	0.757	0.642	0.994	0.995	0.998	0.97	1.05	0.425	0.498	0.456	0.414	0.335
PC-14	0.295	0.324	0.308	0.327	0.341	0.885	0.687	0.79	0.705	0.57	0.95	0.898	0.889	0.676	0.995	0.437	0.378	0.325	0.286	0.31
RERF-LC-KJ	0.952	0.857	0.884	0.911	0.78	0.852	0.786	0.89	0.756	0.732	0.73	0.89	0.748	0.705	0.815	0.868	0.839	0.731	0.758	0.704
SK-LU-1	0.544	0.37	0.428	0.418	0.315	0.532	0.452	0.474	0.396	0.263	1.18	1.07	1.11	0.817	1.06	0.732	0.805	0.473	0.402	0.2
SK-MES-1	0.696	0.577	0.801	0.611	0.369	0.536	0.524	0.507	0.429	0.39	1.04	0.912	0.879	0.854	0.798	0.529	0.453	0.374	0.324	0.285
SW 1573	0.539	0.414	0.481	0.476	0.48	0.611	0.569	0.535	0.516	0.545	0.785	0.905	0.838	0.547	0.757	1.33	1.16	1.02	0.767	0.738
